These compounds were tested against T1, Serine/threonine-protein kinase Chk1 (Homo sapiens, UniProt O14757).
T1 sequence (O14757 whole entry): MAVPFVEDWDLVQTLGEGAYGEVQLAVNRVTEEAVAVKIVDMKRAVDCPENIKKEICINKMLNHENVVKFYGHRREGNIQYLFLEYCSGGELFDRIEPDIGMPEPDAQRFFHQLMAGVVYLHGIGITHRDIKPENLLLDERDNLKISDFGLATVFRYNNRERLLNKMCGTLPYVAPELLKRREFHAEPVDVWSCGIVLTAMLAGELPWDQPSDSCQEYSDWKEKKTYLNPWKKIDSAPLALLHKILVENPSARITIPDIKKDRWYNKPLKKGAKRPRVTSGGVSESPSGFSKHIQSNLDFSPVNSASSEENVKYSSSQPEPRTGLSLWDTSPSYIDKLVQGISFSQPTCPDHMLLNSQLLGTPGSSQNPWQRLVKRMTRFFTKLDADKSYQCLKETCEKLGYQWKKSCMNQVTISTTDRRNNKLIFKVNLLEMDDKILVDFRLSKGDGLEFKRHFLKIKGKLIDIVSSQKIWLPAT
Description: Competitive inhibition of human CHK1 using ATP as substrate by DELFIA

Row | SMILES | IC50 [µM]
1 | c1cncc(Nc2cc(NCC3CCNCC3)ncn2)c1 | 122
2 | NCC1CCN(c2cc(Nc3cnccn3)ncn2)CC1 | 22
3 | N#Cc1cnc(Nc2cc(NCC3CCOCC3)ncn2)cn1 | 20

The next compounds have a lower IC50 than those just listed; values first:

Row | IC50 [µM] | SMILES
4 | 3.2 | N#Cc1cccc(-c2c[nH]c3ncnc(N4CCOC(CN)C4)c23)c1 (configuration not stated)
5 | 1.7 | NCCCNc1ncnc2[nH]c3cnccc3c12
6 | 0.67 | NC1CCN(c2ncnc3[nH]c4cnccc4c23)CC1
7 | 0.29 | NCC1CCN(c2ncnc3[nH]c4cnccc4c23)CC1
